Holding throughout (test): relative viability (nuclei count vs DMSO), 5 days (fraction); higher = more cells survive
Compound in experiment [1]: CC(C)C[C@H](NC(=O)[C@H](Cc1ccccc1)NC(=O)c1cnccn1)B(O)O [Bortezomib] + COc1cccc2cc(-c3nc([C@H]4CC[C@H](C(=O)O)CC4)n4ncnc(N)c34)[nH]c12 [OSI-027] (partner 0.5 µM)
The essentials: (§1)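 After 5 days of treatment, lung cancer cells in 1536-well plates were fixed and stained in a single step (final 0.05% Triton X-100, 1% formaldehyde, 1 ug/ml Hoechst) and their nuclei counted on 4× images. Treatment had been applied by pin tool the day after seeding as one drug alone or as a fixed anchor-drug dose with five library-drug doses (not always all listed) in √10 steps. Relative viability is the nuclei count of treated wells divided by that of vehicle wells, and values are medians of duplicate plates.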

Compound in experiment [2]: COC1=CC(c2cc3ccccc3[nH]2)=N/C1=C\c1[nH]c(C)cc1C [Obatoclax] + CS(=O)(=O)CCNCc1ccc(-c2ccc3ncnc(Nc4ccc(OCc5cccc(F)c5)c(Cl)c4)c3c2)o1 [Lapatinib] (partner 2 µM)
In a few lines:
as §1

Compound in experiment [3]: COC1=CC(c2cc3ccccc3[nH]2)=N/C1=C\c1[nH]c(C)cc1C [Obatoclax] + CCNC(=O)c1noc(-c2cc(C(C)C)c(O)cc2O)c1-c1ccc(CN2CCOCC2)cc1 [Luminespib] (partner 0.01 µM)
In a few lines:
as §1

Compound in experiment [4]: COC1=CC(c2cc3ccccc3[nH]2)=N/C1=C\c1[nH]c(C)cc1C [Obatoclax] + CC(=O)Nc1cccc(-n2c(=O)n(C3CC3)c(=O)c3c(Nc4ccc(I)cc4F)n(C)c(=O)c(C)c32)c1 [Trametinib] (partner 0.02 µM)
The essentials:
as §1

With 201T, the relative viability in experiment [1] (first compound 0.0002 µM) is 0.694; in experiment [1] (first compound 0.000632 µM), 0.75; in experiment [1] (first compound 0.002 µM) it was 0.753; in experiment [1] (first compound 0.006325 µM) it was 0.551; in experiment [1] (first compound 0.02 µM) it was 0.138; in experiment [2] (first compound 0.01 µM) it was 1.08. The relative viability in experiment [2] (first compound 0.03162 µM) came to 0.789; in experiment [2] (first compound 0.1 µM) it was 0.94; in experiment [2] (first compound 0.3162 µM) it was 1.01; in experiment [2] (first compound 1 µM) it was 0.97; in experiment [3] (first compound 0.01 µM) it was 1.1; in experiment [3] (first compound 0.03162 µM) it was 1.04. Further, the relative viability in experiment [3] (first compound 0.1 µM) was found to be 1.06; in experiment [3] (first compound 0.3162 µM), 1.08; in experiment [3] (first compound 1 µM), 1.12; in experiment [4] (first compound 0.01 µM), 0.713; in experiment [4] (first compound 0.03162 µM), 0.737; in experiment [4] (first compound 0.1 µM), 0.776. Besides, the values for the relative viability in experiment [4] (first compound 0.3162 µM) and in experiment [4] (first compound 1 µM) were 0.722 and 0.752, respectively.

A549: the relative viability in experiment [2] (first compound 0.01 µM) came to 0.933; in experiment [2] (first compound 0.03162 µM), 1.1; in experiment [2] (first compound 0.1 µM), 0.997; in experiment [2] (first compound 0.3162 µM) it was 0.966; in experiment [2] (first compound 1 µM), 0.125.

In the case of A-427, the relative viability in experiment [1] (first compound 0.0002 µM) is 0.346; in experiment [1] (first compound 0.000632 µM), 0.327; in experiment [1] (first compound 0.002 µM) it was 0.503; in experiment [1] (first compound 0.006325 µM) it was 0.182; in experiment [1] (first compound 0.02 µM), 0.132; in experiment [2] (first compound 0.01 µM), 1.08. The relative viability in experiment [2] (first compound 0.03162 µM) was 0.884; in experiment [2] (first compound 0.1 µM), 1.03; in experiment [2] (first compound 0.3162 µM), 1.09; in experiment [2] (first compound 1 µM), 0.992; in experiment [3] (first compound 0.01 µM), 0.952; in experiment [3] (first compound 0.03162 µM), 0.962. In addition, the relative viability in experiment [3] (first compound 0.1 µM) was 0.916; in experiment [3] (first compound 0.3162 µM) it was 0.775; in experiment [3] (first compound 1 µM), 0.674; in experiment [4] (first compound 0.01 µM), 0.785; in experiment [4] (first compound 0.03162 µM), 0.689; in experiment [4] (first compound 0.1 µM), 0.849. The relative viability in experiment [4] (first compound 0.3162 µM) came to 0.729; in experiment [4] (first compound 1 µM), 0.621.

In the case of ABC-1, the relative viability is 0.476 in experiment [1] (first compound 0.0002 µM); 0.296 in experiment [1] (first compound 0.000632 µM); 0.193 in experiment [1] (first compound 0.002 µM); 0.183 in experiment [1] (first compound 0.006325 µM); 0.2 in experiment [1] (first compound 0.02 µM); 0.87 in experiment [2] (first compound 0.01 µM). In addition, the relative viability in experiment [2] (first compound 0.03162 µM) was determined as 1.15; in experiment [2] (first compound 0.1 µM), 1.25; in experiment [2] (first compound 0.3162 µM), 1.04; in experiment [2] (first compound 1 µM), 1.33; in experiment [3] (first compound 0.01 µM) it was 0.551; in experiment [3] (first compound 0.03162 µM), 0.555. The relative viability in experiment [3] (first compound 0.3162 µM) worked out at 0.322; in experiment [3] (first compound 1 µM), 0.397.

Turning to BEN, the relative viability came to 0.302 in experiment [1] (first compound 0.0002 µM); 0.288 in experiment [1] (first compound 0.000632 µM); 0.28 in experiment [1] (first compound 0.002 µM); 0.259 in experiment [1] (first compound 0.006325 µM); 0.167 in experiment [1] (first compound 0.02 µM); 0.726 in experiment [2] (first compound 0.01 µM). For the same cell line, the relative viability is 0.696 in experiment [2] (first compound 0.03162 µM); 0.305 in experiment [2] (first compound 0.1 µM); 0.792 in experiment [2] (first compound 0.3162 µM); 0.698 in experiment [2] (first compound 1 µM); 0.507 in experiment [3] (first compound 0.01 µM); 0.243 in experiment [3] (first compound 0.03162 µM). The relative viability in experiment [3] (first compound 0.3162 µM) was determined as 0.26; in experiment [3] (first compound 1 µM), 0.291; in experiment [4] (first compound 0.01 µM), 1.01; in experiment [4] (first compound 0.03162 µM), 1.01; in experiment [4] (first compound 0.1 µM), 0.861; in experiment [4] (first compound 0.3162 µM), 0.944. Besides, the relative viability in experiment [4] (first compound 1 µM) worked out at 1.03.

As to CAL-12T, the relative viability in experiment [1] (first compound 0.0002 µM) came out at 0.757; in experiment [1] (first compound 0.000632 µM) it was 0.578; in experiment [1] (first compound 0.002 µM), 0.754; in experiment [1] (first compound 0.006325 µM), 0.165; in experiment [1] (first compound 0.02 µM), 0.129; in experiment [2] (first compound 0.01 µM), 0.609. Moreover, the relative viability amounted to 0.733 in experiment [2] (first compound 0.03162 µM); 0.755 in experiment [2] (first compound 0.1 µM); 0.392 in experiment [2] (first compound 0.3162 µM); 0.287 in experiment [2] (first compound 1 µM); 0.493 in experiment [3] (first compound 0.01 µM); 0.292 in experiment [3] (first compound 0.03162 µM). Further, the relative viability in experiment [3] (first compound 0.1 µM) was 0.273; in experiment [3] (first compound 0.3162 µM), 0.122; in experiment [3] (first compound 1 µM), 0.118; in experiment [4] (first compound 0.01 µM), 0.337; in experiment [4] (first compound 0.03162 µM), 0.431; in experiment [4] (first compound 0.1 µM) it was 0.47. Further, the relative viability was found to be 0.246 in experiment [4] (first compound 0.3162 µM) and 0.14 in experiment [4] (first compound 1 µM).

Take COR-L23: the relative viability in experiment [1] (first compound 0.0002 µM) was 0.808; in experiment [1] (first compound 0.000632 µM), 0.755; in experiment [1] (first compound 0.002 µM), 0.58; in experiment [1] (first compound 0.006325 µM) it was 0.0553; in experiment [1] (first compound 0.02 µM) it was 0.0549; in experiment [2] (first compound 0.01 µM), 0.954. The relative viability in experiment [2] (first compound 0.03162 µM) worked out at 0.957; in experiment [2] (first compound 0.1 µM), 0.714; in experiment [2] (first compound 0.3162 µM) it was 0.254; in experiment [2] (first compound 1 µM), 0.199; in experiment [3] (first compound 0.01 µM), 0.556; in experiment [3] (first compound 0.03162 µM), 0.638. Further, the relative viability is 0.45 in experiment [3] (first compound 0.1 µM); 0.178 in experiment [3] (first compound 0.3162 µM); 0.115 in experiment [3] (first compound 1 µM); 0.541 in experiment [4] (first compound 0.01 µM); 0.607 in experiment [4] (first compound 0.03162 µM); 0.44 in experiment [4] (first compound 0.1 µM). Besides, the relative viability in experiment [4] (first compound 0.3162 µM) stood at 0.252; in experiment [4] (first compound 1 µM), 0.194.

Consider COR-L 105, for which the relative viability is 0.747 in experiment [1] (first compound 0.0002 µM); 0.606 in experiment [1] (first compound 0.000632 µM); 0.456 in experiment [1] (first compound 0.002 µM); 0.316 in experiment [1] (first compound 0.006325 µM); 0.272 in experiment [1] (first compound 0.02 µM); 0.368 in experiment [2] (first compound 0.01 µM). The relative viability turned out to be 0.318 in experiment [2] (first compound 0.03162 µM); 0.369 in experiment [2] (first compound 0.1 µM); 0.294 in experiment [2] (first compound 0.3162 µM); 0.252 in experiment [2] (first compound 1 µM); 0.97 in experiment [3] (first compound 0.01 µM); 0.908 in experiment [3] (first compound 0.03162 µM). For the same cell line, the relative viability was found to be 0.724 in experiment [3] (first compound 0.1 µM); 1.75 in experiment [3] (first compound 0.3162 µM); 0.236 in experiment [3] (first compound 1 µM); 0.44 in experiment [4] (first compound 0.01 µM); 0.434 in experiment [4] (first compound 0.03162 µM); 0.493 in experiment [4] (first compound 0.1 µM). Further, the relative viability in experiment [4] (first compound 0.3162 µM) was found to be 0.4; in experiment [4] (first compound 1 µM), 0.373.

These data come from the supplement of paper PMC10307832.
